Patent US20190358181A1, “METHODS FOR AUTISM SPECTRUM DISORDER PHARMACOTHERAPY” (priority 2017, published 2019)

Assays:
Format in all cases: in vivo, human
[1] = Toxicity and safety monitoring, adverse events graded by CTCAE v4.03, SAT-1 trial
Description: Immediately before the infusion, height and weight were recorded, vital signs and capillary oxygen saturation (pulse oximetry) measured, physical and neurological examinations were conducted, and urine and blood for safety monitoring, pharmacology, and metabolomics was collected.
(§1) For the test dose, 50 mg of suramin hexasodium (Bayer Pharmaceuticals, Inc.) in 5 mL of saline (experimental arm, 5 patients), or 5 mL of saline only (control arm, 5 patients) were given by slow intravenous (IV) push over 3 minutes, followed by a 10 mL flush of saline. One hour after the test dose, vital signs were repeated and a single infusion of either suramin (20 mg/kg, minus the 50 mg test dose, in 50 mL, up to a maximum of 1 gram) or saline (50 mL IV) was given over 30 minutes, followed by a 10 mL flush of saline.
Suramin pharmacokinetics was assessed by serum isolation at the 4 time points immediately before and after the infusion. […] Unexpected and adverse events were recorded as they occurred and graded in severity according to the National Cancer Institute Common Terminology Criteria for Adverse Events v4.03 (CTCAE) scale. Additional pharmacovigilence monitoring included daily scripted phone calls in the first week, then 4 weekly calls until the exit examinations at 6 weeks.
(§2) Paired, non-parametric analysis was by Wilcoxon signed-rank sum test. Categorical data, such as the presence or absence of adverse events or historical symptoms was analyzed by Fisher's exact test. Two-way ANOVA (treatment×time), with Sidak post hoc correction, was used to analyze the 6-week summaries captured by the ADOS, CGI, and additional blood and urine safety analysis. Cohen's d—calculated as the mean difference of the paired, within-subject scores before and after treatment, divided by the standard deviation of the differences—was used as an estimate of effect size.

males with ASD [2] = experiment: Autism Treatment Evaluation Checklist (ATEC), parent questionnaire, SAT-1 trial
Description: (§3) Two observational examinations were performed by a clinician at 3 time points: baseline (56±8 days; mean±SEM; before the infusion), 2-days post-infusion, and 6-weeks post-infusion. The two examiner-based metrics were the Autism Diagnostic Observation Schedule, 2nd edition (ADOS-2) with video and audio files recorded on 3 cameras, and the Expressive One Word Picture Vocabulary Testing (EOWPVT). Both of these observational metrics were administered by a trained and certified examiner using approved test materials. Three standardized questionnaires were completed by parents at 3 time points: baseline, 7-days post-infusion, and 6-weeks post-infusion. The three standardized questionnaires completed by parents were the 58-question Aberrant Behavior Checklist (ABC), the 75-item Autism Treatment Evaluation Checklist (ATEC), and the 33-item repetitive behavior questionnaire (RBQ). Parents were asked to complete these three instruments with reference to how their child behaved in the previous 7 days. At the end of the six weeks, we included a 24-question Clinical Global Impression (CGI) questionnaire (FIG. 16). In addition, parents were asked to list the 3 top behaviors or symptoms that they observed to be most changed over the previous 6-weeks. To minimize the misinterpretation of natural day-to-day variations in symptoms, parents were asked to mark a symptom as changed in the 6-week CGI only if it had lasted for at least 1 week.
as §1
Behavioral and neurological effects of treatment were assessed primarily by the examiner-based ADOS-2 protocol scores and standardized vocabulary testing (Expressive One Word Picture Vocabulary Test, EOWPVT), with secondary evaluation via parent-based assessments (Aberrant Behavior Checklist (ABC) scores, Autism Treatment Evaluation Checklist (ATEC) scores, Clinical Global Impression of Improvement (CGI) scores, and Repetitive Behavior Questionnaire (RBQ) scores). See General Methods for information related to behavioral test administration. Prior to the study, diagnosis of each of the enrolled participants was confirmed by ADOS-2 comparison scores of ≥7, and non-verbal IQ was tested by Leiter-3 examination. Examiner-based outcomes (ADOS and EOWPVT) were assessed at 2-days and 6-weeks after the infusion. Parent-based outcomes (ABC, ATEC, CGI, and RBQ) were assessed at 7-days and 6-weeks after the infusion. To minimize the effects of natural behavioral variability, the parents were instructed to mark a behavior as changed only if it was persistently changed for at least 1 week.
as §2, with “Each child was used as their own control to examine before and after treatment effects from Example 1 in a paired t-test design for the analysis of the ADOS, EOWPVT, ABC, ATEC, RBQ (FIGS. 4-11 show individual analyses), and blood and urine safety data (FIGS. 2 and 3 show individual analyses). Paired,” for “Paired,”

males with ASD [3] = experiment: Expressive One Word Picture Vocabulary Test (EOWPVT), SAT-1 trial
Description: as §3, with “At the end of the six weeks, we included a 24-question Clinical Global Impression (CGI) questionnaire (FIG. 16). In addition, parents were asked to list the 3 top behaviors or symptoms that they observed to be most changed over the previous 6-weeks. To minimize the misinterpretation of natural day-to-day variations in symptoms, parents were asked to mark a symptom as changed in the 6-week CGI only if it had lasted for at least 1 week.” left out
Behavioral and neurological effects of treatment were assessed primarily by the examiner-based ADOS-2 protocol scores and standardized vocabulary testing (Expressive One Word Picture Vocabulary Test, EOWPVT), with secondary evaluation via parent-based assessments (Aberrant Behavior Checklist (ABC) scores, Autism Treatment Evaluation Checklist (ATEC) scores, Clinical Global Impression of Improvement (CGI) scores, and Repetitive Behavior Questionnaire (RBQ) scores). […] Examiner-based outcomes (ADOS and EOWPVT) were assessed at 2-days and 6-weeks after the infusion. Parent-based outcomes (ABC, ATEC, CGI, and RBQ) were assessed at 7-days and 6-weeks after the infusion. […]
Each child was used as their own control to examine before and after treatment effects from Example 1 in a paired t-test design for the analysis of the ADOS, EOWPVT, ABC, ATEC, RBQ (FIGS. 4-11 show individual analyses), and blood and urine safety data (FIGS. 2 and 3 show individual analyses). […] Categorical data, such as the presence or absence of adverse events or historical symptoms was analyzed by Fisher's exact test. […]

[4] = ATEC Language, 7 days after treatment
[5] = ATEC Language, 45 days after treatment
[6] = ATEC Sociability, 7 days after treatment
[7] = ATEC Total, 7 days after treatment
[8] = EOWPVT Vocabulary, 45 days after treatment

## Cc1ccc(C(=O)Nc2ccc(S(=O)(=O)O)c3cc(S(=O)(=O)O)cc(S(=O)(=O)O)c23)cc1NC(=O)c1cccc(NC(=O)Nc2cccc(C(=O)Nc3cc(C(=O)Nc4ccc(S(=O)(=O)O)c5cc(S(=O)(=O)O)cc(S(=O)(=O)O)c45)ccc3C)c2)c1 [Suramin, suramin]
[1]; Asymptomatic rash
  Adverse or Unanticipated Events, Suramin (N = 5): 5
  CTCAE Grade: 1
[1]; Emesis x 1
  Adverse or Unanticipated Events, Suramin (N = 5): 1^4
  CTCAE Grade: 1
[1]; Enuresis
  Adverse or Unanticipated Events, Suramin (N = 5): 1^9
  CTCAE Grade: 1
[1]; Headache
  Adverse or Unanticipated Events, Suramin (N = 5): 1
  CTCAE Grade: 1
[1]; Hyperactivity
  Adverse or Unanticipated Events, Suramin (N = 5): 2^6
  CTCAE Grade: 1
[1]; Hypoglycemia
  Adverse or Unanticipated Events, Suramin (N = 5): 1
  CTCAE Grade: 2
[1]; Leukocytosis
  Adverse or Unanticipated Events, Suramin (N = 5): 0
[1]; Peripheral neuropathy
  Adverse or Unanticipated Events, Suramin (N = 5): 0
[1]; Total
  Adverse or Unanticipated Events, Suramin (N = 5): 13
[1]; Total, excluding rash
  Adverse or Unanticipated Events, Suramin (N = 5): 8
[1]; Uncomplicated URI
  Adverse or Unanticipated Events, Suramin (N = 5): 2
  CTCAE Grade: 1
[1]; extensive monitoring, single 20 mg/kg IV
  serious toxicities (CTCAE grades 3-5): no serious toxicities
[1]; five children who received suramin
  extent of morbilliform rash: 1%-20%
[1]; in vivo
  time of rash peak after the infusion: 1 days
  time to spontaneous disappearance of rash: 2 to 4 days
[1]; suramin vs placebo (FIGS. 2 and 3)
  free cortisol, hemoglobin, white blood cell count (WBC), platelets, liver transaminases, creatinine, and urine protein: showed no differences
Males with ASD [2]; [4]
  Difference from baseline (mean ± sd): −2.2 ± 1.5
  d (Cohen's d): 1.4
Males with ASD [2]; [5]
  Difference from baseline (mean ± sd): −2.0 ± 1.4
  d (Cohen's d): 1.4
Males with ASD [2]; [6]
  Difference from baseline (mean ± sd): −3.6 ± 2.6
  d (Cohen's d): 1.4
Males with ASD [2]; [7]
  Difference from baseline (mean ± sd): −10 ± 7.7
  d (Cohen's d): 1.3
Males with ASD [3]; [8]
  Difference from baseline (mean ± sd): −4.2 ± 8.3
  d (Cohen's d): −0.51
Males with ASD [3]; after single 20 mg/kg IV dose
  EOWPVT scores: did not change
